Reference: the NIST ThermoML archive (doi:10.1021/acs.jced.6b00888)

Assay: wn = mass fraction of the nth substance listed
Conditions: 101.3 kPa, Liquid, Vibrating tube method

CN(C)CCO [2-(N,N-dimethylamino)ethanol] + O
mass density [kg/m3]
Conditions | w1 = 0.1 | w1 = 0.2 | w1 = 0.3 | w1 = 0.49 | w1 = 0.64 | w1 = 0.69 | w1 = 0.79 | w1 = 0.9 | w1 = 1
293.15 K | 994.8 | 992.8 | 990.8 | 981.7 | 963 | 955.3 | 935.1 | 911.3 | 882.2
298.15 K | 993.3 | 990.8 | 988.1 | 978 | 959 | 951.3 | 931.1 | 906.9 | 884
303.15 K | 991.6 | 988.6 | 985.2 | 974.2 | 954.9 | 947.2 | 926.9 | 902.2 | 879.8
308.15 K | 989.7 | 986.2 | 982.2 | 970.4 | 950.8 | 943 | 922.7 | 897.9 | 875.5
313.15 K | 987.6 | 983.6 | 979.1 | 966.5 | 946.6 | 938.8 | 918.5 | 893.5 | 871.2
318.15 K | 985.3 | 980.9 | 975.8 | 962.6 | 942.4 | 934.5 | 914.2 | 889.1 | 866.8
323.15 K | 982.9 | 978.4 | 972.5 | 958.6 | 938 | 930.1 | 909.8 | 884 | 862.4
328.15 K | 980.3 | 975.1 | 969.1 | 954.5 | 933.7 | 925.7 | 905.4 | 879.3 | 858
333.15 K | 977.6 | 972 | 965.5 | 950.3 | 929.2 | 921.2 | 900.9 | 874.8 | 853.5
338.15 K | 974.7 | 968.8 | 961.9 | 946.1 | 924.7 | 916.7 | 896.4 | 870.4 | 849
343.15 K | 971.7 | 965.5 | 958.2 | 941.8 | 920.2 | 912.1 | 891.8 | 865.8 | 844.4
